Test results from PMC8000395, “Effective Small Molecule Antibacterials from a Novel Anti-Protein Secretion Screen” (Microorganisms, 2021).
Values joined by “and” are separate entries in the source; they are usually repeats but may differ in a detail not shown here. Equal entries are not always repeated. Where two headings read alike, the source gives them in different places.

How the values were obtained:
Providencia stuartii = experiment: Antimicrobial activity test (growth, OD600); type: cell-based; details: read-out: Bacterial Viability (IC50)
[1] = test system: PhoA secretion in E. coli strain BL21 (pLysS); experiment: Luminescence-based HTS assay of in vivo PhoA secretion; type: cell-based; details: Escherichia coli, BL21, luminescence-based HTS assay, E. coli BL21; read-out: Inhibition of PhoA Secretion IC50, HTS
E. coli MC4100 = experiment: Antimicrobial activity test (growth, OD600); type: cell-based; details: Escherichia coli, MC4100; 20 h, 37 °C, OD600; read-out: Bacterial Viability IC50, E. coli MC4100
Streptococcus pneumoniae = experiment: Antimicrobial activity test (growth, OD600); type: cell-based; details: read-out: Bacterial Viability (IC50)
[2] = test system: PhoA secretion in E. coli MC4100; experiment: microbe, parasite or virus in culture; type: cell-based; details: Escherichia coli; PNPP colorimetric lab-scale assay; read-out: Inhibition of PhoA Secretion IC50, Lab-Scale
Haemophilus influenzae = experiment: Antimicrobial activity test (growth, OD600); type: cell-based; details: read-out: Bacterial Viability (IC50)
Shigella sonnei = experiment: Antimicrobial activity test (growth, OD600); type: cell-based; details: read-out: Bacterial Viability (IC50)
HEK293T cells = details: 24 h; for Toxicity of Mammalian Cells (HEK293T) LD50: human
Description: Hek293T cells were harvested and diluted obtaining a cell suspension with a concentration of 200,000 cells/mL in complete growth medium (DMEM, 4.5 g/L d-glucose, pyruvate 1 mM, 0.075% bicarbonate and 10% Fetal Bovine serum). Of this cell suspension, 50 µL (10,000/well) was seeded in a 384 well culture plate (white polystyrene, tissue culture treated) and incubated at 37 °C-5% CO2 for 4 h in a moisturized incubator, which enables the cells to adhere. After the incubation, small chemical compounds were diluted in medium and 10 µL of a compound solution was added onto the cells, ending up with the required compound concentration. The cells were incubated for 24 h at 37 °C-5% CO2 in a moisturized incubator where after × µL medium was removed to equalize the liquid levels within one plate ending up with ±25 µL/well. The amount of remaining cells/well was determined with ATPlite^TM 1step (Perkin Elmer) Adenosine TriPhosphate (ATP) monitoring system, which is based on firefly luciferase.
The cytotoxicity was calculated by subtracting RLU (relative light units) obtained from the cells incubated with a compound from the RLUs obtained from cells in the presence of the vehicle.
The cytotoxic effect of a test compound was determined as:
Percent cell death = [1−((RLU determined for sample with test compound present—1) divided by (RLU determined in the presence of vehicle—1))] * 100.

[3] = test system: PhoA secretion in E. coli BW25113; experiment: Lab-scale p-nitrophenyl PhoA secretion assay, BW25113; type: cell-based; details: Escherichia coli, read-out: PhoA secretion in vivo IC50, E. coli BW25113
[4] = test system: E. coli BW25113::imp-2413+; experiment: Antimicrobial activity test (growth, OD600); details: Escherichia coli, BW25113, read-out: Viability IC50, BW25113::imp-2413+
Serratia marcescens = experiment: Antimicrobial activity test (growth, OD600); type: cell-based; details: read-out: Bacterial Viability (IC50)
[5] = Turbidimetric kinetic aqueous solubility assay; type: physicochemical; details: kinetic from dmso stock
Description: The determination of the aqueous solubility of compounds in this assay is based on the principle of turbidimetry. Turbidimetric methods rely on the measurement of light scattering from precipitate in solution to determine the solubility. Precipitation is identified by an absorbance increase due to blockage of the light by the particles at the wavelength of 570 nm. Compounds, stored in matrix vials (Thermo Fisher) at a stock concentration of 30 mM or 10 mM in 100% Dimethyl sulfoxide (DMSO), were used to make a serial dilution (dose-response) in a 96-well v-bottom propylene plate (Greiner, 651201). Serial dilutions are made to perform the solubility assay; they were made row-wise and start with undiluted compound (30 mM or 10 mM) in the first well and were then 1 over 3 diluted further on. The serial dilutions were eight doses long and contain six compounds per plate maximal (rows B-G). Columns 1 and 12 were filled with 100% DMSO for control purposes. The dose-response plates were 200-times diluted in 300 µL Phosphate Buffered Saline (PBS; pH = 7–7.2 without Ca^2+/Mg^2+) (Gibco, 14190-144) by transferring 1.5 µL of serially diluted compound. […] Dilutions were made by diluting one 96-well plate in two 96-well, flat-bottom, polystyrene plates (Greiner, 655101). These plates were then incubated at room temperature for 1h. After 1h incubation, the plates were read on the envision (Perkin Elmer) at 570 nm.
The data of this assay is reported as “Soluble at” value for each compound. This “soluble at” value represents the concentration where the compound is still soluble and is the concentration before the first precipitated concentration. The first precipitated concentration is the concentration where the absorbance value is more than five standard deviations higher than the average background absorbance. The average background absorbance and the standard deviation are calculated on the 0.5% DMSO controls in columns 1 and 12.

Morganella morganii = experiment: Antimicrobial activity test (growth, OD600); type: cell-based; details: read-out: Bacterial Viability (IC50)
Proteus vulgaris = experiment: Antimicrobial activity test (growth, OD600); type: cell-based; details: read-out: Bacterial Viability (IC50)
[6] = test system: Klebsiella pneumoniae ATCC 27799; experiment: Antimicrobial activity test (growth, OD600); type: cell-based; details: ATCC27799, read-out: Bacterial Viability (IC50)
[7] = test system: Gram-negative and Gram-positive bacteria; experiment: Antimicrobial activity test, summary over Gram-negative and Gram-positive bacteria; type: cell-based; details: for Antibacterial character: 19 Gram-negative and Gram-positive species evaluated; for IC50: summary over species, read-out: Viability of Gram-negative and Gram-positive bacteria IC50 (range over species)
Campylobacter jejuni = experiment: Antimicrobial activity test (growth, OD600); type: cell-based; details: read-out: Bacterial Viability (IC50)
E. coli BW25113 = experiment: Antimicrobial activity test (growth, OD600); type: cell-based; details: Escherichia coli, 20 h, 37 °C, read-out: Bacterial Viability IC50, E. coli BW25113
Gram-positive bacteria = experiment: Antimicrobial activity test, summary over Gram-positive bacteria; type: cell-based
[8] = test system: PhoA secretion in BW25113ΔtolC; experiment: Lab-scale p-nitrophenyl PhoA secretion assay, ΔtolC strain; type: cell-based, E. coli
[9] = test system: Mycobacterium abscessus ATCC19977; experiment: Antimicrobial activity test (growth, OD600); type: cell-based; details: Mycobacteroides abscessus, read-out: Bacterial Viability (IC50)
[10] = pH 7, aqueous buffer, turbidimetry 570 nm, PBS pH 7–7.2, 0.5% DMSO, 1 h, read-out: Aqueous Solubility (soluble at)
[11] = pH 7.1, aqueous buffer, selection threshold, Figure 1B, read-out: Solubility
[12] = B. subtilis, S. aureus, E. faecalis, S. pneumoniae, M. abscessus, read-out: Viability of Gram-positive bacteria IC50 (range over species)
[13] = for 80% of strains, selection threshold, Figure 1B, read-out: Bactericidal activity Gram+ IC50
[14] = Escherichia coli, read-out: Inhibition of PhoA Secretion IC50, Lab-Scale (ΔtolC strain), BW25113ΔtolC, p-nitrophenyl assay
[15] = Escherichia coli, read-out: Inhibiton of PhoA secretion in ΔtolC strain (Lab-scale) IC50, selection threshold of the screening pipeline, Figure 1B

Structure (SMILES)	IC50 (Providencia stuartii)	IC50 [1]	IC50 (E. coli MC4100)	IC50 (Streptococcus pneumoniae)	IC50 [2]	IC50 (Haemophilus influenzae)	IC50 (Shigella sonnei)	Human cell toxicity LD50 (HEK293T cells)	Toxicity of Mammalian Cells (HEK293T) LD50 (HEK293T cells)	IC50 [3]	IC50 [4]	IC50 (Serratia marcescens)	solubility at 1 h [5, 10]	solubility at 1 h [5, 11]	IC50 (Morganella morganii)	IC50 (Proteus vulgaris)	IC50 [6]	Antibacterial character [7]	IC50 [7]	IC50 (Campylobacter jejuni)	further results
O=C(/C=C/c1csnn1)c1ccccc1Cl [HSI#01]	> 100 µM	11.9 µM	> 100 µM	77.8 µM	12.5 µM	> 100 µM	> 100 µM	> 15 µM	6.7 µM	8.13 µM	23.2 µM	> 100 µM	50 µM and 12.5 µg/mL	> 15 µM	> 100 µM	80 to 100 µM	80 to 100 µM	bacteriocidal	1 to 37 µM	> 100 µM	IC50 (E. coli BW25113): > 100 µM; IC50 (Gram-positive bacteria; [12]): 7 to 38 µM; IC50 (Gram-positive bacteria; [13]): < 28 µM; IC50 [8, 14]: 1.37 µM; IC50 [8, 15]: < 2 µM; IC50 ([8]; read-out: Inhibition of PhoA Secretion IC50, Lab-Scale (ΔtolC strain), BW25113ΔtolC, p-nitrophenyl assay): 1.4 µM; IC50 [9]: 33.8 µM
O=C(/C=C/c1csnn1)c1cc(Cl)ccc1Cl [HSI#05]	> 100 µM	35.2 µM	> 100 µM	29.7 µM	7 µM	> 100 µM	> 100 µM	> 15 µM	6.7 µM	3.2 µM	10.3 µM	> 100 µM	4.8 µg/mL	> 15 µM	> 100 µM	> 100 µM	> 100 µM	bacteriocidal	1 to 37 µM	> 100 µM	IC50 (E. coli BW25113): > 100 µM; IC50 (Gram-positive bacteria; [12]): 7 to 38 µM; IC50 (Gram-positive bacteria; [13]): < 28 µM; IC50 [8, 14]: 0.94 µM; IC50 [8, 15]: < 2 µM; IC50 [9]: 17.9 µM
O=C(/C=C/c1csnn1)c1cccc2ccccc12 [HSI#10]	> 100 µM	20 µM	> 100 µM	60.9 µM	19.6 µM	> 100 µM	> 100 µM	> 15 µM	6.7 µM	24.9 µM	12.2 µM	> 100 µM	4.4 µg/mL	> 15 µM	> 100 µM	> 100 µM	> 100 µM	bacteriocidal	1 to 37 µM	> 100 µM	IC50 (E. coli BW25113): > 100 µM; IC50 (Gram-positive bacteria; [12]): 7 to 38 µM; IC50 (Gram-positive bacteria; [13]): < 28 µM; IC50 [8, 14]: 0.99 µM; IC50 [8, 15]: < 2 µM; IC50 [9]: 21.8 µM
